From US8207224B2, “Preservatives based on carboxylic anhydrides” (LANXESS Deutchland GmbH, priority 2006, dated 2012) come the findings set out here.

What all share (format): cell-based
One assay has as its system Saccharomyces cerevisiae. In words: Sterilization test in contaminated apple juice against Saccharomyces cerevisiae. On Visual evaluation after 4 weeks: key: − = not fermented; + = fermented. The settings on record: for Germ number after 24 h (carried out in duplicate): contact time 24 hours at 20° C. How it is done: (§1) Soft drinks were contaminated with the respective stated microorganisms. The active compound concentration required for disinfecting the beverages was determined by sterilization tests.
(§2) Nutrient Media: Yeast orange serum agar (from Oxoid CM657)
(§3) Substances: The substances used were employed neat or as ethanolic or butanolic solutions (for example 2.0% by volume) or suspensions. Dimethyl dicarbonate, Na benzoate, K sorbate, sorbic anhydride and benzoic anhydride were synthesized by known methods or were commercially available. The respective solutions were in each case freshly prepared (alcoholysis). Apparatus: 50 ml tissue culture flasks from Greiner, gauze compresses from Holthans, Thoma counting chamber from Brand.
(§4) As a matter of principle, sterile reagents and apparatus were used. In addition to sterile disposable articles, the required apparatus and reagents were sterilized by suitable measures before use. Sterilization measures were heat treatment in a drying cabinet (at least 8 hours at about 120° C.) or in an autoclave (at least 15 minutes at about 120° C.).
(§5) Before the test was carried out, the beverage substrates were filled into tissue culture flasks. In general, the amount of beverage was 40 ml. Filling was carried out under sterile conditions. At this point in time, it was also possible for the persistent preservatives to be introduced.
(§6) The cultures, which were grown under optimum conditions (in tissue culture flasks from Greiner; 50 ml, 25 cm^2 or in oblique agar tubes), were wetted with up to 30 ml (depending on the test germ) of NaCl solution (if appropriate with addition of about 3 drops of Tween 80), rinsed off or, using glass beads (depending on the germ), scrubbed off intensively and, if required, filtered. Alternatively, it was also possible to employ fluid cultures. Using a microscope and a Thoma chamber, it was possible to carry out a preliminary determination of the germ number. An accurate determination of the germ number of the germ solution used was carried out using the Koch inoculation plate method.
(§7) Depending on the given germ seed (for example 50-500 germs/ml of substrate), the appropriate volume of germ solution (original or dilution) were added and the sample was shaken intensively.
(§8) The doses of active compound, added as pure substance or as appropriate alcoholic solution or suspension in the case of dimethyl dicarbonate and the carboxylic anhydrides, were then added. For a period of about 20 seconds, the samples were immediately shaken intensively.
(§9) The beverage samples were stored at a cultivation temperature of 26° C.±2° C.
(§10) In the case of formerly clear beverages, clouding indicates contamination. In the case of cloudy fruit pulp-containing beverages, visual evaluation was not always possible. Accordingly, in these cases evaluation was carried out as a germ number determination in agar.
The tests were carried out as stated in Example 1.

Assay [1] has as its system Mixture of different problem yeasts from a beverage filling unit. In words: Sterilization test in contaminated apple juice against yeast mix. On Visual evaluation after 4 weeks: key: − = not fermented; + = fermented. The settings on record: contact time 24 hours at 20° C., germ seed 56.000 cfu/ml.
Assay [2] has the same test system. The description is as above. The settings on record: germ seed 56.000 cfu/ml. On the procedure: as §1, §2, §3, §4, §5, §6, §7, §8, §9, §10
The tests were carried out as Stated in Example 1.

Where [3] appears, read: 177 mg/l, pH 3.5, apple juice, germ seed 56 000 cfu/ml.
The mark [4] stands for this setting: 177 mg/l, pH 6.0, apple juice, germ seed 56 000 cfu/ml.
[5] abbreviates: Table 2: 177 mg/l, apple juice, germ seed 56.000 cfu/ml.
The mark [6] stands for this setting: Table 2: 50 mg/l, apple juice, germ seed 56.000 cfu/ml.
Where [7] appears, read: Table 2: 100 mg/l, apple juice, germ seed 56.000 cfu/ml.
[8] abbreviates: Table 2: 250 mg/l, apple juice, germ seed 56.000 cfu/ml.
The mark [9] stands for this setting: 250 mg/l, pH 3.5, apple juice, germ seed 56 000 cfu/ml.
Where [10] appears, read: 250 mg/l, pH 6.0, apple juice, germ seed 56 000 cfu/ml.
[11] abbreviates: 100 mg/l, pH 3.5, apple juice, germ seed 56 000 cfu/ml.
Setting [12] is: 150 mg/l, pH 3.5, apple juice, germ seed 56 000 cfu/ml.
The mark [13] stands for this setting: 150 mg/l, pH 6.0, apple juice, germ seed 56 000 cfu/ml.

Several values for one entry are separate records, joined by “and”; a condition that tells them apart may be missing. Equal values may be shown once.

Regarding `O=C([O-])c1ccccc1.[Na+]` [Na benzoate, Sodium benzoate, reference compound], the “Germ number after 24 h (carried out in duplicate)” value (shortened to “Germ number after 24 h”) was 6.8 × 10^5 and 5.3 × 10^5 with Saccharomyces cerevisiae (setting [3]); 2.6 × 10^6 and 2.2 × 10^6 with Saccharomyces cerevisiae (setting [4]); 1.3 × 10^5 and 1.1 × 10^5 in the assay on Saccharomyces cerevisiae (setting [5]); 1.3 × 10^5 and 1.1 × 10^5 in assay [1] (177 mg/l). Also, the “Visual evaluation after 4 weeks” value (in the assay with Saccharomyces cerevisiae (setting [3]); in the assay on Saccharomyces cerevisiae (setting [4]); in the assay with Saccharomyces cerevisiae (setting [5]); in assay [2] (177 mg/l)) was “+” each time.

Take `C/C=C/C=C/C(=O)OC(=O)/C=C/C=C/C` [Sorbic anhydride, sorbic anhydride]: the “Germ number after 24 h” value in the assay with Saccharomyces cerevisiae (setting [6]) was <10; in the assay with Saccharomyces cerevisiae (setting [7]), <10; in the assay on Saccharomyces cerevisiae (setting [8]), <10; in assay [1] (50 mg/l) it was 2.6 × 10^5 and 1.8 × 10^5; in assay [1] (100 mg/l), 9.2 × 10^4 and 9.4 × 10^4; in assay [1] (250 mg/l), 985 and 1080. The “Visual evaluation after 4 weeks” value in the assay on Saccharomyces cerevisiae (setting [6]) is given as “−”; in the assay with Saccharomyces cerevisiae (setting [7]), “−”; in the assay with Saccharomyces cerevisiae (setting [8]) it was “−”; in assay [2] (50 mg/l), “+”; in assay [2] (100 mg/l), “+”; in assay [2] (250 mg/l), “−”.

As to `COC(=O)OC(=O)OC` [Dimethyl dicarbonate, reference compound], the “Visual evaluation after 4 weeks” value (in the assay on Saccharomyces cerevisiae (setting [9]); with Saccharomyces cerevisiae (setting [10]); with Saccharomyces cerevisiae (setting [8]); in assay [2] (250 mg/l)) was “+” throughout. In addition, the “Germ number after 24 h” value was <10 with Saccharomyces cerevisiae (setting [8]); 6.8 × 10^6 and 5.7 × 10^6 in assay [2] (250 mg/l, contact time 24 hours at 20° C.).

In the case of `O=C(OC(=O)c1ccccc1)c1ccccc1` [Benzoic anhydride, benzoic anhydride], the “Germ number after 24 h” value in the assay on Saccharomyces cerevisiae (setting [11]) is <10; in the assay with Saccharomyces cerevisiae (setting [12]), <10; in the assay on Saccharomyces cerevisiae (setting [13]), “about 10”; in the assay on Saccharomyces cerevisiae (setting [9]), <10; in the assay on Saccharomyces cerevisiae (setting [10]), <10. Also, the “Visual evaluation after 4 weeks” value with Saccharomyces cerevisiae (setting [11]) was “−”; in the assay with Saccharomyces cerevisiae (100 mg/l, pH 6.0, apple juice, germ seed 56 000 cfu/ml), “+”; in the assay on Saccharomyces cerevisiae (setting [12]), “−”; in the assay with Saccharomyces cerevisiae (setting [13]) it was “+”; in the assay on Saccharomyces cerevisiae (setting [9]) it was “−”; in the assay with Saccharomyces cerevisiae (setting [10]), “−”.
